Assay results published in ChEMBL document CHEMBL5465560, “Selectivity Literature for EUbOPEN Chemogenomic Library” (2024).

Legend:
[1] = biological target: T1, Serine/threonine-protein kinase 17A (Homo sapiens) (UniProt Q9UEE5); assay: Selectivity interaction (Kinase panel (DSF assay)) EUB0001559a STK17A
T1 sequence (whole entry): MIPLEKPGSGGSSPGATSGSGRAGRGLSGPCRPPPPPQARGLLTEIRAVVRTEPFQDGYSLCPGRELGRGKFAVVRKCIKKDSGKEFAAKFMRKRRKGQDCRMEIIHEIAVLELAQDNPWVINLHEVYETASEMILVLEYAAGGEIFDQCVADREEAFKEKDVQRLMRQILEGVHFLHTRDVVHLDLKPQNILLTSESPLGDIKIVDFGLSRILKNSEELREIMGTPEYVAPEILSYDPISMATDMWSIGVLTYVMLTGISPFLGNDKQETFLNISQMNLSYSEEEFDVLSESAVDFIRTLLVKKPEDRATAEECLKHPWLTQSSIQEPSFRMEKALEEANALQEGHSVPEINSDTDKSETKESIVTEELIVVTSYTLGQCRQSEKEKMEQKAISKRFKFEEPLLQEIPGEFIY

[2] = biological target: Ribosomal protein S6 kinase alpha-6 (Homo sapiens, UniProt Q9UK32); assay: Selectivity interaction (KinomeScan (DiscoverX)) EUB0000618a RPS6KA6; settings: at 10 µM
[3] = biological target: Macrophage colony-stimulating factor 1 receptor (Homo sapiens) (UniProt P07333); assay: Selectivity interaction (KinomeScan (DiscoverX)) EUB0000618a CSF1R; settings: at 10 µM
[4] = biological target: T2, Ephrin type-B receptor 4 (Homo sapiens) (UniProt P54760); assay: Selectivity interaction (KinomeScan (DiscoverX)) EUB0001619a EPHB4; settings: at 1 µM
T2 sequence (whole entry): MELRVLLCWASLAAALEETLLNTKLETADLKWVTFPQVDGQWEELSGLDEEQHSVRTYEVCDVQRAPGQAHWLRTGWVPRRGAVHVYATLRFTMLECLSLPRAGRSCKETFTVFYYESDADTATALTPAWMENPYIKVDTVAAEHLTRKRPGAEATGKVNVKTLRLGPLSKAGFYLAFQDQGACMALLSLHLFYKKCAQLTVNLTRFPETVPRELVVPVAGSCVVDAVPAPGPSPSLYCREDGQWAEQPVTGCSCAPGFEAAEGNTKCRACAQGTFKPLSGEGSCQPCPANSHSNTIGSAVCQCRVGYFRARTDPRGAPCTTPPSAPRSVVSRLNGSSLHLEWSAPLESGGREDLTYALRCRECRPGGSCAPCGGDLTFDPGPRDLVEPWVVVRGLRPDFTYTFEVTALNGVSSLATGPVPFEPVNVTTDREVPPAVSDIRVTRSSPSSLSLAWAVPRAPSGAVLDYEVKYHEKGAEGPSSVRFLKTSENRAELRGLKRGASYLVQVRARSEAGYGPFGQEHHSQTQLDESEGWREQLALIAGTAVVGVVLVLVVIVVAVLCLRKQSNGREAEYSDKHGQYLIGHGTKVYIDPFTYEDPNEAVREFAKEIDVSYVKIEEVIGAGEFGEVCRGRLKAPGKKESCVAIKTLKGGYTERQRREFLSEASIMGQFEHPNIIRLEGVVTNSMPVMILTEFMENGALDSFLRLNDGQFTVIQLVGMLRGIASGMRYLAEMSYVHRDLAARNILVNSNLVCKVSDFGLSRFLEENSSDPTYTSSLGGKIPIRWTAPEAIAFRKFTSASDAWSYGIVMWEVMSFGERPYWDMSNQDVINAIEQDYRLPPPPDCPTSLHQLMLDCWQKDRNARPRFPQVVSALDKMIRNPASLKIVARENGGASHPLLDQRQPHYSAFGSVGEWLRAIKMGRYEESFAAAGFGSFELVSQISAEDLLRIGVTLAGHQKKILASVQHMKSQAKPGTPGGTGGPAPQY

[5] = biological target: Bone morphogenetic protein receptor type-1A (Homo sapiens, UniProt P36894); assay: Selectivity interaction (Kinase panel (Invitrogen)) EUB0000639a BMPR1A; settings: at 200 nM
[6] = system: eIF-2-alpha kinase GCN2 (Homo sapiens), Q9P2K8 [S808G]; assay: Selectivity interaction (KinomeScan (DiscoverX)) EUB0000229b EIF2AK4; settings: at 10 µM
Mu-type opioid receptor = Mu-type opioid receptor (Homo sapiens, UniProt P35372); assay: Selectivity interaction (Panel of kinases, GPCRs, ion channels and transporters (enzymatic assay)) EUB0000223bCl OPRM1
[7] = biological target: Serine/threonine-protein kinase tousled-like 2 (Homo sapiens) (UniProt Q86UE8); assay: Selectivity interaction (LanthaScreen Eu Kinase Binding Assay) EUB0001632a TLK2; settings: at 10 µM
Chain of Serine/threonine-protein kinase tousled-like 2 (Homo sapiens) (Q86UE8 whole entry, looked up): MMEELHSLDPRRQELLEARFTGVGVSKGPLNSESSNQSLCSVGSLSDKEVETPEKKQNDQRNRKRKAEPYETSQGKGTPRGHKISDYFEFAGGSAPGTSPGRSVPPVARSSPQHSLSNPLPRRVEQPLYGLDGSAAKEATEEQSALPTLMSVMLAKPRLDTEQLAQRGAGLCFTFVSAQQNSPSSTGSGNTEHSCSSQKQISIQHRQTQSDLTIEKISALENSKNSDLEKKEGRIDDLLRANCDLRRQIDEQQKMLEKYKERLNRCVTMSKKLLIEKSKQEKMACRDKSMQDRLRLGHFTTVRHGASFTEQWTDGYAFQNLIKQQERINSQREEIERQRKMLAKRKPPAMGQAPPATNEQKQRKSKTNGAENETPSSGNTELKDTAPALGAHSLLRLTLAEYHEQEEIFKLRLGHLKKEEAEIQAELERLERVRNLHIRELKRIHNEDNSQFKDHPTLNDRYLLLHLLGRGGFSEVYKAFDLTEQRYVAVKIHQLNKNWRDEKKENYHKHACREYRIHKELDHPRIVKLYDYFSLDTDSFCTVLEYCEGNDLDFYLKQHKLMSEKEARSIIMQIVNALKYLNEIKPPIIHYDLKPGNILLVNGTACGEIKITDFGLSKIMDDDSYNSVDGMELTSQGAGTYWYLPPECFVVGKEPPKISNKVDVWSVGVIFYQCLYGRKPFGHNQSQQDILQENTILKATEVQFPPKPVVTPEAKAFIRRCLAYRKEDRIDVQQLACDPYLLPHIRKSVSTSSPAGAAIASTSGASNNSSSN

Chain of Macrophage colony-stimulating factor 1 receptor (Homo sapiens) (P07333 whole entry): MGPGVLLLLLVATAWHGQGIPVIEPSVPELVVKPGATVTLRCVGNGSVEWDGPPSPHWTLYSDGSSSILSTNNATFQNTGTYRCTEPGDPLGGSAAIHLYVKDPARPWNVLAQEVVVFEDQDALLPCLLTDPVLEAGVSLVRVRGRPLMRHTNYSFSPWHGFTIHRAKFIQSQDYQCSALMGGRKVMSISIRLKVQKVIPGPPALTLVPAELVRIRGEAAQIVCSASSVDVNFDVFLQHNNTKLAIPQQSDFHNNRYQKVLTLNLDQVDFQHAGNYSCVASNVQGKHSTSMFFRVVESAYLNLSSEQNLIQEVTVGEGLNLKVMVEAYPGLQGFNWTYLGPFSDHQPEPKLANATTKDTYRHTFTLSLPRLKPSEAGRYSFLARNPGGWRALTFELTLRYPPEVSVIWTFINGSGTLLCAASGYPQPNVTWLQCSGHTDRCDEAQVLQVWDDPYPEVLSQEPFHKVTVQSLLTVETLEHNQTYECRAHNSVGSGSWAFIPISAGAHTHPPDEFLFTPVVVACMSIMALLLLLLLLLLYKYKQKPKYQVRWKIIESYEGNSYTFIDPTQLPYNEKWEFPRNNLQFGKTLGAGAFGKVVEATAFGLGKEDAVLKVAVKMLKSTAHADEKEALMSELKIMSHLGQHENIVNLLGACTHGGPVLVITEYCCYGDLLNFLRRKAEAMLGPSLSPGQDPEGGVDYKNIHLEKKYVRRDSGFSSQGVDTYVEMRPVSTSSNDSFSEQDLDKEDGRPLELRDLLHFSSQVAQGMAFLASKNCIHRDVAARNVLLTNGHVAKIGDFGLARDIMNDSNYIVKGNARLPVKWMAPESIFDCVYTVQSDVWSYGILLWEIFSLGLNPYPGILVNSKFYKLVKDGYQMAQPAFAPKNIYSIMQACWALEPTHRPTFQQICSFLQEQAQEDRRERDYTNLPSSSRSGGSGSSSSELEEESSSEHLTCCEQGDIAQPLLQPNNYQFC
Chain of Ribosomal protein S6 kinase alpha-6 (Q9UK32 whole entry): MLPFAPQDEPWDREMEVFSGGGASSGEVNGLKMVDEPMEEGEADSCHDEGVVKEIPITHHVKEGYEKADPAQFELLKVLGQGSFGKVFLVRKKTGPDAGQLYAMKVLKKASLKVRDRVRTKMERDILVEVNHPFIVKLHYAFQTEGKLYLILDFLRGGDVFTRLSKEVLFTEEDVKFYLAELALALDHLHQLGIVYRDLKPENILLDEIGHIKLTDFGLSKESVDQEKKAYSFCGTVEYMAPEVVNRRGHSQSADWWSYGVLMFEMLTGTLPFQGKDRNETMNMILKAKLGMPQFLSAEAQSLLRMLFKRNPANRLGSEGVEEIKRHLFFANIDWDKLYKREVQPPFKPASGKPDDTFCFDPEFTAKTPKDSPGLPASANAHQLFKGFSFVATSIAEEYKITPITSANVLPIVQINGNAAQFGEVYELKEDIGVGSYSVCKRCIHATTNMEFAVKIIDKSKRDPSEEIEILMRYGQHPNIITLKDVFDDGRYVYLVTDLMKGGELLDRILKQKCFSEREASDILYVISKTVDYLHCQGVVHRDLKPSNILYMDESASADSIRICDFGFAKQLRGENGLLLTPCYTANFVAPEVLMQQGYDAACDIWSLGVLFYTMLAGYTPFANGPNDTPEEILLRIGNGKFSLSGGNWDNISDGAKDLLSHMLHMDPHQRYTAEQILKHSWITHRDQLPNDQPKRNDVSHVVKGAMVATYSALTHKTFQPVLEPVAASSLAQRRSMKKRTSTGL
Chain of Bone morphogenetic protein receptor type-1A (P36894 whole entry): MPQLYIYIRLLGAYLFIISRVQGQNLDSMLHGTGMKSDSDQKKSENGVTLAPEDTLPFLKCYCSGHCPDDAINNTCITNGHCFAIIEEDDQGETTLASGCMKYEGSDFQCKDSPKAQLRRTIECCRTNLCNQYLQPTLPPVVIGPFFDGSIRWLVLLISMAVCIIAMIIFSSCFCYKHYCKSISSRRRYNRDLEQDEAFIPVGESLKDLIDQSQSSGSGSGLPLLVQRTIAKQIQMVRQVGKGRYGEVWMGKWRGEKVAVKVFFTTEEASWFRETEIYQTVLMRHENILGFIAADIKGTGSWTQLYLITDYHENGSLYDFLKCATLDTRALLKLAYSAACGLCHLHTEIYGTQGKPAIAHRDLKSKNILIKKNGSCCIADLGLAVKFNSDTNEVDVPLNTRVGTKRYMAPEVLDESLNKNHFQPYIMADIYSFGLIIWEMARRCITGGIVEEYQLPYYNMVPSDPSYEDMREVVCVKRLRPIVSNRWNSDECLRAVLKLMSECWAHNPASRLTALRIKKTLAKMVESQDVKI
Chain of eIF-2-alpha kinase GCN2 (Homo sapiens), Q9P2K8 [S808G] (Q9P2K8 whole entry S808G): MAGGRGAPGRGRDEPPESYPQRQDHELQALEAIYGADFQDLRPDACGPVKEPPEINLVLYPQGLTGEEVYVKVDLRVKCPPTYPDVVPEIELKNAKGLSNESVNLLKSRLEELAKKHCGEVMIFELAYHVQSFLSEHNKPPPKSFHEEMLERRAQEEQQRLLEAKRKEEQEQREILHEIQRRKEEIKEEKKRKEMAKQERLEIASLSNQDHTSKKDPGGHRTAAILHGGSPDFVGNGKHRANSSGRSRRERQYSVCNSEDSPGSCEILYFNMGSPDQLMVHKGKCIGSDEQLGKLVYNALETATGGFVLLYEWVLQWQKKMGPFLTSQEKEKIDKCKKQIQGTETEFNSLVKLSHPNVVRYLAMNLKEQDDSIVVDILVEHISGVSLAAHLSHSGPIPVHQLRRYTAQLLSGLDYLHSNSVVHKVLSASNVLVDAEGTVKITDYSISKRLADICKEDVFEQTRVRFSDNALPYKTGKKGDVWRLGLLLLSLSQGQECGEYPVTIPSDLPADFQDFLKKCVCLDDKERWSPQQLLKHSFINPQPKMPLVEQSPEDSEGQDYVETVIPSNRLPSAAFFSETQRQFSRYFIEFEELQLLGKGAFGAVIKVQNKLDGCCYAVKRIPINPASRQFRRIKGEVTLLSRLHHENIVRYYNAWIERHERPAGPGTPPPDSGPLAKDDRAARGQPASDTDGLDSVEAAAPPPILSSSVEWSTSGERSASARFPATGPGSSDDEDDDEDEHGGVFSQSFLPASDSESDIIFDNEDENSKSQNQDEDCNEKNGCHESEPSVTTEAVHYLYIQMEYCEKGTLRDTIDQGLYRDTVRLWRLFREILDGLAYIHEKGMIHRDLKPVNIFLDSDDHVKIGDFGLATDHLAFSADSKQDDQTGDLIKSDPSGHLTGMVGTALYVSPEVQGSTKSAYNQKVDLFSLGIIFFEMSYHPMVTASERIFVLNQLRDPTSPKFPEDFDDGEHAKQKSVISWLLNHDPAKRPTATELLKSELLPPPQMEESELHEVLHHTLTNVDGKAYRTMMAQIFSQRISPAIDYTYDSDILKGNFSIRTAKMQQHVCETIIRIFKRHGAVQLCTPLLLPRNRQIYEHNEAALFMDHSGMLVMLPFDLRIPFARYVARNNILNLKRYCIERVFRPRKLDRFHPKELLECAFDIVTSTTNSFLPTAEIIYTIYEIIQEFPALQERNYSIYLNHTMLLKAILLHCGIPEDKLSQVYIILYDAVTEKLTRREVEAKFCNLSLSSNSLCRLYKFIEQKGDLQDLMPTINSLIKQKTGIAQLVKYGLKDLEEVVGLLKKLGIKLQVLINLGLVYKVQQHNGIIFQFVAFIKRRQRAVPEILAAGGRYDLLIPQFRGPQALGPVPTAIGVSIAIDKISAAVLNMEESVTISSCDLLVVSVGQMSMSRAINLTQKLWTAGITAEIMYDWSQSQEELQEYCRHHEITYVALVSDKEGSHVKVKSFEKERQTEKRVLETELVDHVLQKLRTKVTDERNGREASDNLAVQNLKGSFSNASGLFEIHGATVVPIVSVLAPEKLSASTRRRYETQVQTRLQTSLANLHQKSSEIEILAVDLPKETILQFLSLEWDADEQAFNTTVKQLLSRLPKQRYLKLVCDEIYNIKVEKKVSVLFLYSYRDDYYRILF
Chain of Mu-type opioid receptor (P35372 whole entry): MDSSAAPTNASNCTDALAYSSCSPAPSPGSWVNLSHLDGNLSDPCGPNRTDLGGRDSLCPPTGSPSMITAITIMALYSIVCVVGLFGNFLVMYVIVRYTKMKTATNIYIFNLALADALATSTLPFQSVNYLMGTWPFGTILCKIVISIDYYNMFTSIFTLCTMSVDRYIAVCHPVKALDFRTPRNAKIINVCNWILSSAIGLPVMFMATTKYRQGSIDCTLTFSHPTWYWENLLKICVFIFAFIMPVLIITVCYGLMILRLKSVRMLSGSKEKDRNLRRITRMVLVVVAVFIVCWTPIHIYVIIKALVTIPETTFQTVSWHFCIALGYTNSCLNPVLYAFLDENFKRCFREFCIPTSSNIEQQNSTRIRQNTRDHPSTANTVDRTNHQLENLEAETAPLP

In the case of `CN(C(=O)c1cnn2cccnc12)c1cc2c(cc1N1CCOCC1)C(=O)N(C[C@@H](F)C(C)(C)O)C2`, the dTM [1] is reported as -0.1 K.

For `O[C@H]1CC[C@H](Nc2ncc3nc(Nc4c(F)cc(F)cc4F)n([C@H]4CCOC4)c3n2)CC1`, the % of control [2] was 13% and the % of control [3] was 64%.

In the case of `N#Cc1cccc(-c2c[nH]c3ncnc(N4CCOCC4)c23)c1`, the % of control [4] is reported as 100%.

Work on `CC[C@@H]1[C@H](F)C(=O)N[C@@H]1COc1nccc2cc(C(N)=O)c(OC)cc12` [ZIMLOVISERTIB] yielded a % of inhibition [5] of 20.8%.

For `COc1cc(N(C)c2ccnc3ccc(C(F)(F)F)cc23)cc(OC)c1OC`, the % binding [6] was 100%.

Compound `COc1cc(C(=O)N2CC[C@@H](O)[C@@H](N)C2)cc2nc(-c3cc4ccccc4n3CC3CC3)n(C)c12` has a pXC50 (Mu-type opioid receptor) of less than 4 M.

In the case of `Cn1cc(-n2cnc3c(NCc4nc5cc(Cl)c(Cl)cc5[nH]4)nc(N4CCOCC4)nc32)cn1`, the % of inhibition [7] is reported as -11.9%.
